The target in assay [1] is T1, pY705-STAT3 in PBMC (Homo sapiens, UniProt P40763).
T1 construct: Cryopreserved Peripheral Blood Mononuclear Cells (PBMC) are from AllCells; host or cells: cryopreserved PBMC
Kind of assay: MSD-pSTAT-PBMC Assay (pSTAT3, IL-6 stimulated). The class given is cell-based. The conditions noted are these: compound 3 hrs, then 10 ng/mL IL-6 for 10 min. A digest of the protocol: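 PBMC (human, cryopreserved, overnight recovery) + cpd 3 hrs → IL-6 10 ng/mL (STAT3) or IL-4 1 ng/mL (STAT6) ×10 min → lysis with protease/phosphatase inhibitors → MSD capture/phospho detection. IC50, variable slope, DMSO-normalized.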

Assay [2] has as its target T2, pY641-STAT6 in PBMC (Homo sapiens, UniProt P42226).
T2 construct: Cryopreserved Peripheral Blood Mononuclear Cells (PBMC) are from AllCells; host or cells: cryopreserved PBMC
T2 sequence (P42226 1-847): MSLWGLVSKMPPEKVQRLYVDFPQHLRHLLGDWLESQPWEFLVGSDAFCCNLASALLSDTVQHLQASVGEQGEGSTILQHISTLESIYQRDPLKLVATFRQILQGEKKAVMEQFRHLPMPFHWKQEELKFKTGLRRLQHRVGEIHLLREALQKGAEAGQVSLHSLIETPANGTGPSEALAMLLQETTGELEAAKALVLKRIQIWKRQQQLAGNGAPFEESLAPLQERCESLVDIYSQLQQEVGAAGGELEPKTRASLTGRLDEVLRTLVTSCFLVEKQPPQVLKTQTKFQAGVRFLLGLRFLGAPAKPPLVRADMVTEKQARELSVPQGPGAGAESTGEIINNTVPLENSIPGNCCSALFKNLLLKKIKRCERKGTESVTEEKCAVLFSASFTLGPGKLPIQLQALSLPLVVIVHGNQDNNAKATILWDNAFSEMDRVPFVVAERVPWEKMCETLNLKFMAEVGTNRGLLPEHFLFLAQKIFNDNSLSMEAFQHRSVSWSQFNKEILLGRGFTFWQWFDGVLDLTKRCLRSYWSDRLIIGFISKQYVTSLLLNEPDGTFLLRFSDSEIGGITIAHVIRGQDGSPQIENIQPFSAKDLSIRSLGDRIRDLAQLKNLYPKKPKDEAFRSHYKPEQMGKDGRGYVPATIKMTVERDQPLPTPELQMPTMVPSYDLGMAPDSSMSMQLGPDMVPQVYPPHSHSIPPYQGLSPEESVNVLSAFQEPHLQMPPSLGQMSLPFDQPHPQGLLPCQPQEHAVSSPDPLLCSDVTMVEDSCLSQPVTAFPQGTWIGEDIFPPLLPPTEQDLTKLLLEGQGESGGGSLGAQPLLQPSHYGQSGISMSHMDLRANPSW
Kind of assay: MSD-pSTAT-PBMC Assay (pSTAT6, IL-4 stimulated). The class given is cell-based. Conditions: compound 3 hrs, then 1 ng/mL IL-4 for 10 min. The gist of the method:
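Cells are preincubated with compound for 3 hrs, then stimulated for 10 min, IL-4 at 1 ng/mL driving STAT6 phosphorylation and IL-6 at 10 ng/mL driving STAT3. Phospho-STAT in lysates is quantified by MSD immunoassay, and IC50 is fitted after subtracting unstimulated wells.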

The mark [3] stands for this setting: PBMC, Table 115, read-out: STAT3.
Where [4] appears, read: PBMC, Table 115, read-out: STAT6.

Read-outs that look alike come from different tables or passages of the source.

T1 sequence (P40763 whole entry): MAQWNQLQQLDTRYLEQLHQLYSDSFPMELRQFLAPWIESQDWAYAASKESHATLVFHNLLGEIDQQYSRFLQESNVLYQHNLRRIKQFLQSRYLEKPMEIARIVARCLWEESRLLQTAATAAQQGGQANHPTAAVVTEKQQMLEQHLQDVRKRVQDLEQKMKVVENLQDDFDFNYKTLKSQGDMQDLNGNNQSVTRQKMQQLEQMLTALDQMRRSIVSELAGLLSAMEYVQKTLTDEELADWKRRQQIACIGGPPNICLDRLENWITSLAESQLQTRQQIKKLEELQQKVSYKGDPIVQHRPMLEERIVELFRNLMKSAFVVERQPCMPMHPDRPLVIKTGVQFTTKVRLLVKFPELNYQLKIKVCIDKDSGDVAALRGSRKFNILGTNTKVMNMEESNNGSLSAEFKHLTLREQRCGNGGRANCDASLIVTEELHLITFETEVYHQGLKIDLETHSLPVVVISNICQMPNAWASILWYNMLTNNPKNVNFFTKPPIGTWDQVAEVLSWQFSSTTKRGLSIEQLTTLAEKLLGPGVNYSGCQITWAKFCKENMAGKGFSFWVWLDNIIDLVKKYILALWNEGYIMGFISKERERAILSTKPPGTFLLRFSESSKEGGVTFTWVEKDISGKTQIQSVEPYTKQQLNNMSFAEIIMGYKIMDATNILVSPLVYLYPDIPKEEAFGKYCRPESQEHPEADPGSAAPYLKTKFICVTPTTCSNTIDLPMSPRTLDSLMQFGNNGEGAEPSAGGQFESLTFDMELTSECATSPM

For the compound `CC(C)(O)CC(=O)SCCOP(=O)(OCCSC(=O)CC(C)(C)O)C(F)(F)c1ccc2sc(C(=O)N[C@H]3CCCC[C@H]4CC[C@@H](C(=O)N5C[C@@H](C#N)[C@H](c6ccccc6)C5)N4C3=O)cc2c1` (single isomer, unassigned) [Compound 202, S,S′-(((((2-(((3S,6S,10a S)-3-((3S,4R or 3R,4S)-3-cyano-4-phenylpyrrolidine-1-carbonyl)-5-oxodecahydro-pyrrolo [1,2-a]azocin-6-yl)carbamoyl)benzo [b]thiophen-5-yl)difluoromethyl)phosphoryl)bis(oxy))bis(ethane-2,1-diyl)) bis(3-hydroxy-3-methylbutane thioate)], the IC50 in assay [1] (PBMC, Table 1114, read-out: pSTAT3) was more than 3000 nM; in assay [2] (PBMC, Table 1114, read-out: pSTAT6) it was 1000 to 3000 nM.
With `CCCOC(=O)[C@H](C)NP(=O)(Oc1ccccc1)C(F)c1ccc2sc(C(=O)N[C@H]3CCCC[C@H]4CC[C@@H](C(=O)N5C[C@@H](C#N)[C@H](c6ccccc6)C5)N4C3=O)cc2c1` (single isomer, unassigned) [Compound 315], the IC50 in assay [1] (setting [3]) was more than 3000 nM; in assay [2] (STAT6, PBMC, Table 115), less than 100 nM.
For the compound `CCCOC(=O)[C@H](C)NP(=O)(Oc1ccccc1)C(F)c1ccc2sc(C(=O)N[C@H]3CCCC[C@H]4CC[C@@H](C(=O)N5C[C@@H](c6cccc(OC)c6)[C@H](C#N)C56CC6)N4C3=O)cc2c1` (single isomer, unassigned) [Compound 326], the IC50 in assay [1] (setting [3]) was more than 3000 nM; in assay [2] (STAT6, PBMC, Table 115) it was less than 100 nM.
As for `CCCOC(=O)[C@H](C)NP(=O)(Oc1ccccc1)[C@@H](F)c1ccc2sc(C(=O)N[C@H]3CCCC[C@H]4CC[C@@H](C(=O)N5C[C@@H](C#N)[C@H](c6ccccc6)C5)N4C3=O)cc2c1` (single isomer, unassigned) [Compound 343], the IC50 in assay [1] (setting [3]) is more than 3000 nM; in assay [2] (STAT6, PBMC, Table 115), less than 100 nM.
As to `CCCOC(=O)[C@H](C)NP(=O)(Oc1ccccc1)[C@H](F)c1ccc2sc(C(=O)N[C@H]3CCC[C@H]4CC[C@@H](C(=O)N5C[C@H](c6cccnc6)[C@@H](C#N)C56CC6)N4C3=O)cc2c1` (single isomer, unassigned) [Compound 354], the IC50 in assay [1] (setting [3]) is more than 3000 nM; in assay [2] (STAT6, PBMC, Table 115) it was less than 100 nM.
In the case of `N#C[C@H]1CN(C(=O)[C@@H]2CC[C@@H]3CCCC[C@H](NC(=O)c4ccc5ccc(C(F)(F)P(=O)(OCCSC(=O)CC6COC6)OCCSC(=O)CC6COC6)cc5c4)C(=O)N32)C[C@@H]1c1cc[nH]c(=O)c1` (single isomer, unassigned) [Compound 408], the IC50 is more than 3000 nM in assay [1] (setting [3]) and 100 to 1000 nM in assay [2] (setting [4]).
With `CCCOC(=O)[C@H](C)N[P@](=O)(Oc1ccccc1)[C@@H](F)c1ccc2sc(C(=O)N[C@H]3CCC[C@H]4CC[C@@H](C(=O)N5CC(c6cnccc6N(C)C)C5)N4C3=O)cc2c1` (single isomer, unassigned) [Compound 941], the IC50 in assay [1] (setting [3]) is less than 100 nM; in assay [2] (STAT6, PBMC, Table 115) it was 1000 to 3000 nM.
On to `CCCOC(=O)[C@H](C)NP(=O)(Oc1ccccc1)[C@H](F)c1ccc2sc(C(=O)N[C@H]3CCC[C@H]4CC[C@@H](C(=O)N5CC(c6cnccc6N(C)C)C5)N4C3=O)cc2c1` (single isomer, unassigned) [Compound 954], for which the IC50 in assay [1] (setting [3]) was less than 100 nM; in assay [2] (STAT6, PBMC, Table 115), more than 3000 nM.
Take `CC(C)CC(=O)SCCOP(=O)(Oc1cccc(C#N)c1)C(F)(F)c1ccc2sc(C(=O)N[C@H]3CCCC[C@H]4CC[C@@H](C(=O)N5C[C@H](c6ccccc6)[C@@H](C#N)C5)N4C3=O)cc2c1` (single isomer, unassigned) [Compound 1007]: the IC50 was more than 3000 nM in assay [1] (STAT3, PBMC, Table 115) and 100 to 1000 nM in assay [2] (STAT6, PBMC, Table 115).
`COCC(=O)SCCOP(=O)(OCCSC(=O)COC)C(F)(F)c1ccc2sc(C(=O)N[C@H]3CCCC[C@H]4CC[C@@H](C(=O)N5C[C@@H](C#N)[C@H](c6cc[nH]c(=O)c6)C5)N4C3=O)cc2c1` (single isomer, unassigned) [Compound 1010]: the IC50 was 1000 to 3000 nM in assay [1] (setting [3]) and 100 to 1000 nM in assay [2] (setting [4]).
As for `CCCOC(=O)[C@H](C)N[P@](=O)(Oc1ccccc1)[C@H](F)c1ccc2sc(C(=O)N[C@H]3CCC[C@H]4CC[C@@H](C(=O)N5CC(c6cnccc6N6CCOCC6)C5)N4C3=O)cc2c1` (single isomer, unassigned) [Compound 1045], the IC50 in assay [1] (setting [3]) is less than 100 nM; in assay [2] (STAT6, PBMC, Table 115), more than 3000 nM.
As for `COc1ccncc1C1CN(C(=O)[C@@H]2CC[C@@H]3CCC[C@H](NC(=O)c4cc5cc([C@@H](F)[P@](=O)(N[C@@H](C)C(=O)OCc6ccccc6)Oc6ccccc6)ccc5s4)C(=O)N32)C1` (single isomer, unassigned) [Compound 1055], the IC50 is less than 100 nM in assay [1] (setting [3]) and more than 3000 nM in assay [2] (STAT6, PBMC, Table 115).
Regarding `COCCC(=O)SCCOP(=O)(OCCSC(=O)CCOC)C(F)(F)c1ccc2sc(C(=O)N[C@H]3CCCC[C@H]4CC[C@@H](C(=O)N5C[C@@H](C#N)[C@H](c6cc[nH]c(=O)c6)C5)N4C3=O)cc2c1` (single isomer, unassigned) [Compound 1083], the IC50 in assay [1] (setting [3]) is 1000 to 3000 nM; in assay [2] (setting [4]) it was 100 to 1000 nM.
The like results for `CC(C)CC(=O)SCCOP(=O)(OCOC(=O)OC1CCOCC1)C(F)(F)c1ccc2sc(C(=O)N[C@H]3CCCC[C@H]4CC[C@@H](C(=O)N5C[C@H](c6cc[nH]c(=O)c6)[C@@H](C#N)C5)N4C3=O)cc2c1` (single isomer, unassigned) [Compound 1085] were, in that order, 100 to 1000 nM and less than 100 nM.
In the case of `CC(C)OC(=O)OCOP(=O)(OCOC(=O)OC(C)C)C(F)(F)c1ccc2ccc(C(=O)N[C@H]3CCCC[C@H]4CC[C@@H](C(=O)N5C[C@H](c6cc[nH]c(=O)c6)[C@@H](C#N)C5)N4C3=O)cc2c1` (single isomer, unassigned) [Compound 1087], the values for the IC50 in assay [1] (setting [3]) and in assay [2] (setting [4]) were 100 to 1000 nM and less than 100 nM, respectively.
With `CC(C)OC(=O)OCOP(=O)(OCOC(=O)OC(C)C)C(F)(F)c1ccc2ccc(C(=O)N[C@H]3CCCC[C@H]4CC[C@@H](C(=O)N5C[C@@H](C#N)[C@H](c6cc[nH]c(=O)c6)C5)N4C3=O)cc2c1` (single isomer, unassigned) [Compound 1088], the IC50 in assay [1] (setting [3]) was 1000 to 3000 nM; in assay [2] (setting [4]) it was less than 100 nM.
In the case of `CC(C)CC(=O)SCCOP(=O)(OCCSC(=O)CC(C)C)[C@@H](F)c1ccc2sc(C(=O)N[C@H]3CCCC[C@H]4CC[C@@H](C(=O)N5C[C@@H](C#N)[C@H](c6cc[nH]c(=O)c6)C5)N4C3=O)cc2c1` (single isomer, unassigned) [Compound 1090], the IC50 in assay [1] (setting [3]) fell in the range of 1000 to 3000 nM; in assay [2] (setting [4]) it was 100 to 1000 nM.
With `CC(C)(CO)C(=O)SCCOP(=O)(Oc1ccccc1)C(F)(F)c1ccc2sc(C(=O)N[C@H]3CCCC[C@H]4CC[C@@H](C(=O)N5C[C@@H](C#N)[C@H](c6cc[nH]c(=O)c6)C5)N4C3=O)cc2c1` (single isomer, unassigned) [Compound 1091], the IC50 is more than 3000 nM in assay [1] (setting [3]) and more than 3000 nM in assay [2] (STAT6, PBMC, Table 115).
In the case of `CC(C)CC(=O)SCCOP(=O)(OCOC(=O)OC1COC1)C(F)(F)c1ccc2sc(C(=O)N[C@H]3CCCC[C@H]4CC[C@@H](C(=O)N5C[C@H](c6cc[nH]c(=O)c6)[C@@H](C#N)C5)N4C3=O)cc2c1` (single isomer, unassigned) [Compound 1093], the IC50 was more than 3000 nM in assay [1] (setting [3]) and 100 to 1000 nM in assay [2] (setting [4]).
With `CC(C)CC(=O)SCCOP(=O)(OCOC(=O)O[C@@H]1CCOC1)C(F)(F)c1ccc2sc(C(=O)N[C@H]3CCCC[C@H]4CC[C@@H](C(=O)N5C[C@H](c6cc[nH]c(=O)c6)[C@@H](C#N)C5)N4C3=O)cc2c1` (single isomer, unassigned) [Compound 1094], the IC50 fell in the range of 1000 to 3000 nM in assay [1] (setting [3]) and 100 to 1000 nM in assay [2] (setting [4]).

Source of the values: US20250215029A1 (Recludix Pharma, Inc., priority 2022, published 2025).
